Assay results taken from PMC10765375, “Crystal structure and enzymology of Solanum tuberosum inositol tris/tetrakisphosphate kinase 1 (StITPK1)” (Biochemistry, 2023).
“Also recorded” adds a separate entry of the source. Read-outs that look alike come from different tables or passages of the source.

Columns and labels:
StITPK1 [1] = target: T1, StITPK1 (Solanum tuberosum, UniProt A4H2J0); test: Kinase assay with ATP, HPLC of products; format: biochemical; conditions: for Product formation (3h) / Product formation (12h) / Product formation (separate 12h experiment): 1 mM substrate; for Product formation (3h) / Product formation (12h): 25°C; for kinase substrate status: with ATP, HPLC
T1 sequence (A4H2J0 entry or part of it): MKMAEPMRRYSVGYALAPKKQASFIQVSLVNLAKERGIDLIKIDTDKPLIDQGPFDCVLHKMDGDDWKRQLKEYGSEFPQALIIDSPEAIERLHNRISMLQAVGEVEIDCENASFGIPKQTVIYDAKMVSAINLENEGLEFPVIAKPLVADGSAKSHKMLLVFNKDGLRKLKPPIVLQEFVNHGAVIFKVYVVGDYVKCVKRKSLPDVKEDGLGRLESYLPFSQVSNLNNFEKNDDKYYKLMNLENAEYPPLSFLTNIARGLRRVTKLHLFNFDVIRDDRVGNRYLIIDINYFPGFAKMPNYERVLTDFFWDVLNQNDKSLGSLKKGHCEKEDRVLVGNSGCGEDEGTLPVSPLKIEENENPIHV
Description: (§1) Kinase assays were performed with ATP-regeneration as described for ATP-grasp kinases ITPK1/2 and VIH1/2 [2-3, 27-29], here in 20 mM HEPES pH 6.5, 1 mM MgCl2, 0.5 mM ATP and 1 mM inositol phosphate substrate. The low rate constants for phospho-kinase activity and the low sensitivity of NMR, PAGE and HPLC […]
[2-3, 27-29], here with or without 4 µM protein for 3h or 12h at 25 °C. Competition/inhibition assays were […]
InsP6, and competitor, typically 0.5 mM, incubated with or without 3 µM protein for 2 h at 25 °C . […]
(§2) 0.5 mM inositol pyrophosphate substrate incubated with 4 µM protein at 25 °C . HPLC analysis and detection of inositol phosphates by complexation with ferric ion was performed as described. Peak area data were analysed with the chromatography Jasco ChromNav v.2 software and x,y data were imported into GraphPad Prism v.6 software (GraphPad Software Inc., San Diego, USA) for plotting of chromatograms without additional processing of the data. […]

StITPK1 [2] = target: T1, StITPK1; test: Competition/inhibition of Ins(1,2,3,4,5)P5 5-phospho-kinase activity, HPLC; format: biochemical; conditions: for % inhibition at 3h, Ins(1,2,3,4,5)P5 substrate: 0.5 mM competing substrate/inhibitor, 1 mM Ins(1,2,3,4,5)P5, 3h experiment; for inhibition of Ins(1,2,3,4,5)P5 phospho-kinase activity: 0.5 mM competitor
AtITPK1 = target: T2, AtITPK1; test: Kinase assay with ATP, HPLC of products; format: biochemical, Arabidopsis thaliana; conditions: with ATP, HPLC
T2 construct: made in house
Description: as §1
[2-3, 27-29], here with or without 4 µM protein for 3h or 12h at 25 °C. […]
as §2

StITPK1 [3] = target: T1, StITPK1; test: Fluorescence polarization displacement of 2-FAM-InsP5; format: binding; conditions: Cheng-Prusoff with Kd 48 nM
From the text: To determine the relative strengths of binding of different inositol phosphate and inositol pyrophosphate substrates of StITPK1 we undertook fluorescence polarization experiments with 2-FAM-InsP5 [35]. […] A saturation curve for binding of 2-FAM-InsP5 to StITPK1 is shown (Figure S5) and displacement curves are shown for diverse inositol phosphates (Figure 2). The structures of these compounds are shown (Figure S1). […]
Fluorescence polarization (anisotropy)
A curve for binding of 2-FAM-InsP5 to StITPK1 was obtained by incubation of 2 nM 2-FAM-InsP5 [1] with increasing concentration (1-500 nM) of StITPK1 in 20 mM HEPES pH 6.5, 1 mM EDTA, 100 mM NaCl, after. Thereafter, displacement assays were performed by titration of inositol phosphate, inositol pyrophosphate […]
or analog thereof with 2 nM 2-FAM-InsP5 and 50 nM StITPK1. Compounds were tested for displacement in a range of 1 nM - 50 µM. Fluorescence polarization was measured in 384-well, black, low-binding plates, Corning product 3573. Binding and displacement curves (anisotropy) were log transformed and fitted to a 4-parameter logistic (in GraphPad Prism v.6 software (GraphPad Software Inc., San Diego, USA). Fitting of the […]
Substituting the value of Kd for KM in the Cheng-Prusoff equation for competitive inhibition: […]
with concentration of 2-FAM-InsP5 [S], yielded Ki with confidence intervals adjusted by linear approximation.
M.; Jamieson, A. G.; Potter, B. V.; Schwabe, J. W., Insights into the activation mechanism of class I HDAC complexes by inositol phosphates. Nat Commun 2016, 7, 11262. […]

[4] = Ki for displacement of 2-FAM-InsP5, 2 nM 2-FAM-InsP5, 50 nM StITPK1, pH 6.5
[5] = 2 nM 2-FAM-InsP5, 50 nM StITPK1, pH 6.5, read-out: Ki for displacement of 2-FAM-InsP5

| SMILES | Product formation (3h) (StITPK1 [1]) | Product formation (12h) (StITPK1 [1]) | kinase substrate status (StITPK1 [1]) | % inhibition at 3h, Ins(1,2,3,4,5)P5 substrate (StITPK1 [2]) | inhibition of Ins(1,2,3,4,5)P5 phospho-kinase activity (StITPK1 [2]) | kinase substrate status (AtITPK1) | Ki (StITPK1 [3]; [4]) | Ki (StITPK1 [3]; [5]) | Product formation (separate 12h experiment) (StITPK1 [1]) |
| --- | --- | --- | --- | --- | --- | --- | --- | --- | --- |
| O=P(O)(O)CP(=O)(O)O[C@@H]1[C@H](OP(=O)(O)O)[C@H](OP(=O)(O)O)[C@@H](OP(=O)(O)O)[C@H](OP(=O)(O)O)[C@H]1OP(=O)(O)O [1-PCP-InsP5, myo-inositol 2,3,4,5,6-penta-phosphate-1-methylenediphosphonate] | 22 μM/μM protein | 145 μM/μM protein | better substrates | 61% | potent inhibitors | better substrates | – | – | – |
| O=P(O)(O)O[C@@H]1[C@@H](OP(=O)(O)O)[C@@H](OP(=O)(O)O)[C@@H](OP(=O)(O)OP(=O)(O)O)[C@H](OP(=O)(O)O)[C@H]1OP(=O)(O)O [1-PP-InsP5, 1D-1-diphospho-myo-inositol 2,3,4,5,6-pentakisphosphate] | 9 μM/μM protein | 75 μM/μM protein | the weaker substrate | 76% | – | – | – | – | – |
| O=P(O)(O)CP(=O)(O)OC1C(OP(=O)(O)O)C(OP(=O)(O)O)C(OP(=O)(O)O)C(OP(=O)(O)O)C1OP(=O)(O)O (stereo not drawn) [3-PCP-InsP5, myo-inositol 1,2,4,5,6-penta-phosphate-3-methylenediphosphonate] | 41 μM/μM protein | 232 μM/μM protein | better substrates | 78% | potent inhibitors | better substrates | – | – | – |
| O=P(O)(O)OC1[C@@H](OP(=O)(O)O)[C@H](OP(=O)(O)O)C(OP(=O)(O)OP(=O)(O)O)[C@@H](OP(=O)(O)O)[C@H]1OP(=O)(O)O (stereo partly drawn) [3-PP-InsP5, 1D-3-diphospho-myo-inositol 1,2,4,5,6-pentakisphosphate] | 35 μM/μM protein | 193 μM/μM protein | phospho-kinase substrates; also recorded: a stronger substrate than 1-PP-InsP5 | 71% | – | a stronger substrate than 1-PP-InsP5 | – | – | – |
| O=C(O)CP(=O)(O)O[C@H]1[C@H](OP(=O)(O)O)[C@@H](OP(=O)(O)O)[C@@H](OP(=O)(O)O)[C@@H](OP(=O)(O)O)[C@@H]1OP(=O)(O)O [5-PA-InsP5, myo-inositol 1,2,3,4,6-penta-phosphate-5-phosphonoacetate] | 50 μM/μM protein | 236 μM/μM protein | strongest phospho-kinase substrate after myo-InsP6 | 44% | – | weak substrate | – | – | – |
| O=C(NC1C(OP(=O)(O)O)C(OP(=O)(O)O)C(OP(=O)(O)O)C(OP(=O)(O)O)C1OP(=O)(O)O)C(F)(F)P(=O)(O)O (stereo not drawn) [5-PCF2AM-InsP5, 5-deoxy-5-(phosphonodifluoroacetamido)-myo-inositol 1,2,3,4,6-pentakisphosphate] | 0 μM/μM protein | 0 μM/μM protein | not a substrate | 67% | – | – | 0.106 µM | – | – |
| O=C(CP(=O)(O)O)NC1C(OP(=O)(O)O)C(OP(=O)(O)O)C(OP(=O)(O)O)C(OP(=O)(O)O)C1OP(=O)(O)O (stereo not drawn) [5-PCH2AM-InsP5, 5-deoxy-5-(phosphonoacetamido)-myo-inositol 1,2,3,4,6-pentakisphosphate] | 0 μM/μM protein | 25 μM/μM protein | very weak substrates | 43% | – | – | 0.889 µM | – | – |
| O=P(O)(O)CP(=O)(O)OC1C(OP(=O)(O)O)C(OP(=O)(O)O)C(OP(=O)(O)O)C(OP(=O)(O)O)C1OP(=O)(O)O (stereo not drawn) [5-PCP-InsP5, myo-inositol 1,2,3,4,6-penta-phosphate-5-methylenediphosphonate] | 0 μM/μM protein | 0 μM/μM protein | – | 60% | – | – | – | 0.101 µM | – |
| O=P(O)(O)OC1C(OP(=O)(O)O)C(OP(=O)(O)O)C(OP(=O)(O)O)C(OP(=O)(O)O)C1OP(=O)(O)O [D-chiro-InsP6, 1-D-chiro-inositol 1,2,3,4,5,6-hexakisphosphate] | – | 0 μM/μM protein | not a substrate | – | – | – | 0.154 µM | – | 0 μM/μM protein |
| O=P(O)(O)O[C@@H]1[C@@H](OP(=O)(O)O)[C@H](OP(=O)(O)O)[C@@H](O)[C@H](OP(=O)(O)O)[C@@H]1OP(=O)(O)O [Ins(1,2,3,4,5)P5, 1D-myo-inositol 1,2,3,4,5-pentakisphosphate] | – | – | showing phospho-kinase activity | – | – | – | – | 0.431 µM | 257 μM/μM protein |
| O=P(O)(O)O[C@@H]1[C@H](OP(=O)(O)O)[C@H](OP(=O)(O)O)[C@@H](O)[C@H](OP(=O)(O)O)[C@H]1OP(=O)(O)O [Ins(1,2,3,5,6)P5, 1D-myo-inositol 1,2,3,5,6-pentakisphosphate] | – | – | lacking activity | – | – | – | – | 0.288 µM | 0 μM/μM protein |
| O=P(O)(O)O[C@@H]1[C@@H](OP(=O)(O)O)[C@H](OP(=O)(O)O)[C@@H](O)[C@@H](O)[C@H]1OP(=O)(O)O [Ins(1,4,5,6)P4, 1D-myo-inositol 1,4,5,6-tetrakisphosphate] | – | – | – | – | – | – | – | 2.56 µM | 41 μM/μM protein |
| O=P(O)(O)OC1C(OP(=O)(O)O)C(OP(=O)(O)O)C(OP(=O)(O)O)C(OP(=O)(O)O)C1OP(=O)(O)O (stereo not drawn) [neo-InsP6, neo-inositol 1,2,3,4,5,6-hexakisphosphate] | – | 0 μM/μM protein | failure of StITPK1 to phosphorylate | – | – | – | 0.111 µM | – | 0 μM/μM protein |
| O=P(O)(O)OC1C(OP(=O)(O)O)C(OP(=O)(O)O)C(OP(=O)(O)O)C(OP(=O)(O)O)C1OP(=O)(O)O (stereo not drawn) [scyllo-InsP6, scyllo-inositol 1,2,3,4,5,6-hexakisphosphate] | – | 0 μM/μM protein | failure of StITPK1 to phosphorylate | – | – | – | 0.423 µM | – | 0 μM/μM protein |
